Test results taken from patent publication EP4140481A1, “PROTEIN-OLIGOMER BINDING AGENTS AND THERAPEUTIC USES THEREOF” (Galyan Bio, Inc., priority 2021, dated 2023).
Values joined by “and” are separate entries in the source; they are usually repeats but may differ in a detail not shown here. Equal values may be shown once.

What was measured:
[1] = molecular target: T1, phospho-Tau (Ser404) (Mus musculus, UniProt P10637); experiment: Phospho-Tau (Ser404) immunocytochemistry in STHdh 7/7 cells; format: cell-based
T1 construct: host or cells: ST HDH Q7/7 mouse striatal cell line
T1 sequence (P10637 whole entry): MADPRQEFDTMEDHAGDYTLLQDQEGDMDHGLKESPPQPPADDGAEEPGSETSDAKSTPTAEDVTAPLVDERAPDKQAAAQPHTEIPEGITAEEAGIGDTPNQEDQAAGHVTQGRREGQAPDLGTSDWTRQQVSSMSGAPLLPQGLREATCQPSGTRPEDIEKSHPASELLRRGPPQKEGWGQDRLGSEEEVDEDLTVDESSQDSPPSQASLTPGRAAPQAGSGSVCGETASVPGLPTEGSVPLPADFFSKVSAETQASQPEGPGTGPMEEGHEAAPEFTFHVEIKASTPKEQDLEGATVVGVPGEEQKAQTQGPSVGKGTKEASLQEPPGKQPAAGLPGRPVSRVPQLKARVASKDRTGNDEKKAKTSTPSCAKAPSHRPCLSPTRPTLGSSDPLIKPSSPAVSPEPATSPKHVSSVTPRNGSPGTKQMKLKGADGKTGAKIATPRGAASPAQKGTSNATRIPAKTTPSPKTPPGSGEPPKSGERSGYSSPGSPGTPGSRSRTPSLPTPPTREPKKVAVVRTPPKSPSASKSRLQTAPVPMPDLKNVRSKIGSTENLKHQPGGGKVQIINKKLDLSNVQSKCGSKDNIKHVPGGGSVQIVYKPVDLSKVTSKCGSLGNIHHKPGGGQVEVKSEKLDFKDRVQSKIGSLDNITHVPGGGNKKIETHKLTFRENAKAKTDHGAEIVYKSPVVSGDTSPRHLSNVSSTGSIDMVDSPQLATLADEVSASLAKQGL
Text: Effect of Compound 4 on Phospho-Tau (Ser396) levels - ST HDH Q7/7 (CH00097, Coriell Institute) striatal derived cell line from a knock in transgenic mouse containing HTT loci with a humanized Exon 1 containing 7 polyglutamine repeats. Diffuse mHTT quantified with immunocytochemistry as described in Example 33 with the exception that instead of 3B5H10 antibody for staining mHTT, phospho-Tau (Ser404) polyclonal antibody (ThermoFisher, Catalog 44-758G) was used to stain phospho-Tau (Ser396) and no heat shock was used.

[2] = system: STHdh 111/111; experiment: Morphology of striatal cells expressing mutated huntingtin; format: cell-based, mouse; settings: treated versus not treated STHdh 111/111
[3] = molecular target: Htt Exon-1 Q16 (Homo sapiens, UniProt P42858, DEL34-38); experiment: Dynamic Light Scattering (DLS), induced aggregation; format: biochemical
Chain of Htt Exon-1 Q16 (P42858 with tags, fused parts or gaps DEL34-38): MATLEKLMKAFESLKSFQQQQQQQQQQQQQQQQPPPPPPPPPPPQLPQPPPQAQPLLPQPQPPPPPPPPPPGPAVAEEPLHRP
Description: (§1) Proteins were ultracentrifuged with 50,000 rpm (rounds per minute) for one hour at 2 °C. The supernatant was used for DLS measurements. DLS measurements were conducted with Malvern Zetasizer Nano (Malvern Panalytical Ltd, United Kingdom).
(§2) Futher experiments were made with Htt Exon-1 Q16 and Q46. Table 28 Size Distribution (Volume and Number) of Q16 under various conditions

[4] = molecular target: T2, Htt Exon-1 Q46 (Homo sapiens, UniProt P42858, INS38QQQQQQQQQQQQQQQQQQQQQQQQQ); experiment: as above; format: biochemical
T2 construct: Futher experiments were made with Htt Exon-1 Q16 and Q46
T2 sequence (P42858 with tags, fused parts or gaps with the stated changes): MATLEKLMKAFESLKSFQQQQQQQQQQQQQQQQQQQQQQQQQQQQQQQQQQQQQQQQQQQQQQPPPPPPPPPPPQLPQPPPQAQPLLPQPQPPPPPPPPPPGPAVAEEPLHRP
Description: as §1, §2

[5] = system: C. elegans; experiment: C. elegans growth and development (toxicity) assay; format: in vivo; settings: doses 32nM to 500µM, hatching to first day of adulthood
Description: Delivery strategy: The indicated compound dosage is based on the total volume of the plates with the assumption that the water-soluble compound diffuses throughout the agar. The compound is dissolved in a working solution and then combined directly with the food bacteria before seeding on agar plates. The food spots are dried slowly, allowing the compound to diffuse into the food bacteria and the agar for 24 hours.
Growth and development assay results: High-resolution imaging and automated detection were used to precisely measure the growth rate of animals from hatching to the first day of adulthood (total of 4 days). The C. elegans growth and development assay is highly sensitive and widely used in toxicology studies. Performing this test over a range of doses helps to identify a set of doses that have a physiological impact and exclude dose ranges that are likely too toxic to benefit lifespan.

[6] = Solubilization of Compound 4; format: physicochemical
[7] = molecular target: T3, Wild type (wt) α-Synuclein (Homo sapiens, UniProt P37840); experiment: Dynamic Light Scattering (DLS), induced aggregation; format: biochemical
T3 construct: purchased rPeptide, Watkinsville, Georgia S-1001-2

[8] = Oral bioavailability; settings: mouse, in vivo, mice
[9] = system: mHTT; experiment: Immunohistochemistry of nuclear diffuse mHTT in brain tissue from the R6/2 study; format: in vivo, R6/2 mice; settings: 33 mg/kg i.p. QD; treated animals n= 9 versus vehicle treated TG mice; p = 0.01
Description: Preparation of Immunohistology slides - Brain tissue collected within the animal study was prepared for IHC studies by Charles River staff. The brains were fixed by immersion in 4% paraformaldehyde for at least 24 h after which brain samples were cryoprotected by 30% sucrose solution for 72 h. Finally, the brain samples were flash-frozen in liquid nitrogen and stored at -80 °C. The brain samples were cut using a microtome cryostat system, producing coronal brain tissue sections of 40 µm thickness. Those were mounted on individual adhesive-coated microscope glass slides with frosted ends.
Staining - Goat anti-Rabbit IgG (H+L) Alexa Fluor 647 (1:500, ThermoFisher Invitrogen) was used as a secondary antibody for binding to CBP antibody. […]
The blocking buffer was freshly prepared and consisted of PBS (Sigma-Aldrich) with 5% normal goat serum (NGS), 0.2% BSA, 0.2% lysine and 0.2% glycine. […] On day six, samples were washed and then incubated with DAPI containing mounting medium Fluoroshield (Sigma-Aldrich), in order to counterstain the nuclei and preserve the fluorescence. […]
Results - Figures 23A-23F show the distinction of inclusion bodies (IB) and diffuse species of mHTT by confocal fluorescence imaging. […] Consequently, this distinction of diffuse mHTT and IBs was implemented in the analysis macro to quantify the different species of mHTT within striatum and cortex of R6/2 mice. […]

[10] = system: STHdh 111/111 striatal cells; experiment: Cell viability after heat shock (CellTiter Glo); settings: heat shocked STHdh 111/111 versus STHdh 7/7 control cells
Description: Cell culture - ST HDH Q111/111 (CH00095, Coriell Institute) striatal derived cell line were grown at 33°C in DMEM (Sigma-Aldrich), supplemented with 10% fetal bovine serum (FBS), 1% Penicillin-Streptomycin (ThermoFisher Scientific), and 0.4 mg/ml G418 (Geneticin; Invitrogen). ST HDH Q111/111 are mouse striatal cells with polyQ length of 111.
Pre-Treatment of striatal cell line - First the medium was removed and new DMEM (DMEM, high glucose, HEPES, no phenol red) medium, supplemented with 10% fetal bovine serum (FBS), 1% Penicillin-Streptomycin, containing 10 µM compound was added. The cells were incubated at 33 °C for 24 hours.
Heat shock - Cells were heat shocked for 3 hours at 41 °C.
Treatment - Medium was removed and new DMEM (DMEM, high glucose, HEPES, no phenol red) medium, supplemented with 1% fetal bovine serum (FBS), 1% Penicillin-Streptomycin, containing 10 µM compound was added. The cells were incubated at 33 °C for 48 hours.
Cell Viability - Cell viability was measured according to manufacturer recommendations with CellTiter Glo (Promega).

[11] = by number, equimolar Compound 4
[12] = by volume, equimolar Compound 4
[13] = by intensity, equimolar Compound 4

SMILES: CCc1c(C)[nH]c2ccc(C(=O)NCCN(CC)CC)cc12 [Compound 4, N-(2-(diethylamino)ethyl)-3-ethyl-2-methyl-1H-indole-5-carboxamide]
- Phospho-Tau (Ser404) reduction ([1]; 10 µM, no heat shock, versus untreated STHdh 7/7): 40%
- Phospho-Tau (Ser404) reduction with autophagy inhibitor ([1]; 10 mM ammonium chloride): could not reduce
- cell morphology [2]: improved cell viability, dendrite outgrowth and increased cell size
- % Number, Peak 1 [3, 11]: 100%
- Size, Peak 1 [3, 11]: 6.0 nm and 6.063 nm
- % Volume, Peak 1 [3, 12]: 0.2%
- % Volume, Peak 2 [3, 12]: 99.8%
- Size, Peak 1 [3, 12]: 93.12 nm
- Size, Peak 2 [3, 12]: 6.949 nm
- assembly state of Q16 ([3]; exposed to Compound 4): mainly monomeric
- % Intensity, Peak 1 [4, 13]: 83.1%
- % Intensity, Peak 2 [4, 13]: 12.9%
- % Intensity, Peak 3 [4, 13]: 4,1%
- Size, Peak 1 [4, 13]: 178.7 nm
- Size, Peak 2 [4, 13]: 9.275 nm
- Size, Peak 3 [4, 13]: 3917 nm
- assembly state of Q46 ([4]; exposed to Compound 4): assembles as mostly aggregates and larger aggregates
- highest concentration at which no adverse effects were detected [5]: 4 µM
- solubility in DMSO ([6]; initial batch): limited solubility
- dissolved in water ([6]; second batch with an HCl modification): ≥ 200 mM
- oligomerization of wt α-Synuclein ([7]; Compound 4 solved in methanol): does not oligomerize
- % Volume, Peak 1 ([7]; by volume, 70 µM equimolar Compound 4 solved in methanol): 99,4%

SMILES: Cc1[nH]c2ccc(C(=O)NCCN(C(C)C)C(C)C)cc2c1C [Compound 22]
- bioavailability [8]: 10%
- Nuclear diffuse mHTT reduction in the cortex [9]: 40%
- cell viability at 24 hours after treatment [10]: almost equivalent to the cell viability of STHdh 7/7 control cells
